For five compounds, AC50, IC50 and EC50 results are on record in ChEMBL document CHEMBL1201862, “PubChem BioAssay data set” (2004).

Experiment [1] deals with Latent membrane protein 1 (Human herpesvirus 4 (strain B95-8), UniProt P03230). Description: LMP1 TES1 pathway selectivity over dsRED control – imaging, HEK293T, dual-color eGFP/dsRED, cherry-picks, selectivity assay for LMP1 NF-kB inhibitor project, dose response (AID 588398). The format is functional, cell-based.
Experiment [2] deals with T1, DNA repair protein RAD52 homolog (Homo sapiens, UniProt P43351).
T1 sequence (P43351 whole entry): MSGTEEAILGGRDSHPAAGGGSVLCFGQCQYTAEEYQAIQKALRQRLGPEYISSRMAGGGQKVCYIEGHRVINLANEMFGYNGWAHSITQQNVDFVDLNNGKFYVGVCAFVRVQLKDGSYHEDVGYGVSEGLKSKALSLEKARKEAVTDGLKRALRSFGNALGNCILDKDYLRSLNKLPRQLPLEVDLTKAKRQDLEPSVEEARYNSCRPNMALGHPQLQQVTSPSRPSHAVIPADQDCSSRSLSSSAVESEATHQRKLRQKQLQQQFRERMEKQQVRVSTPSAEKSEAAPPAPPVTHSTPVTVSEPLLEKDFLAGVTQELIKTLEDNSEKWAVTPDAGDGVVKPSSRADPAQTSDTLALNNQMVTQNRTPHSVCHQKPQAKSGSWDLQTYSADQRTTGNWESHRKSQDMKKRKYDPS
It counts as functional, biochemical.

Experiment [3] addresses T2, Microphthalmia-associated transcription factor (Homo sapiens, UniProt O75030).
T2 sequence (O75030 whole entry): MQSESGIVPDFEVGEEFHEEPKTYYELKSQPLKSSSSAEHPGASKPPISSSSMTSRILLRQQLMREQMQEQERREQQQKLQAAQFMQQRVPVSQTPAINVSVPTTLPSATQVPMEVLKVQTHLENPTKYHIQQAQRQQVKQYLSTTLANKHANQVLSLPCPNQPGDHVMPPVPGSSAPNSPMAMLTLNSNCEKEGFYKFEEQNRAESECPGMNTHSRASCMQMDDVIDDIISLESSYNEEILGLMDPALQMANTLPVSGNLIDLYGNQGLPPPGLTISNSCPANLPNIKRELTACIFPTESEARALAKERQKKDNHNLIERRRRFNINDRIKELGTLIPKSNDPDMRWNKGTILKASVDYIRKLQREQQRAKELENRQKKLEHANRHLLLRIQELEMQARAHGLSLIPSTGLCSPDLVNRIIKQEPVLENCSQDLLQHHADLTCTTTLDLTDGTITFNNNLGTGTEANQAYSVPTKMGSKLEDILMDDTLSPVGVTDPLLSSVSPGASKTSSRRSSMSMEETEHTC
Description: reducers of TRPM1 reporter luminescence, concentration series – cell-based, SK-MEL-5, cherry-picked, set 3, MITF inhibitor project, dose response (AID 493073).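 Note: SK-MEL-5 melanoma cells with luciferase driven by the MITF target TRPM1 promoter.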 It counts as functional.

Experiment [4] has as its target T3, Sentrin-specific protease 8 (Homo sapiens, UniProt Q96LD8).
T3 sequence (Q96LD8 whole entry): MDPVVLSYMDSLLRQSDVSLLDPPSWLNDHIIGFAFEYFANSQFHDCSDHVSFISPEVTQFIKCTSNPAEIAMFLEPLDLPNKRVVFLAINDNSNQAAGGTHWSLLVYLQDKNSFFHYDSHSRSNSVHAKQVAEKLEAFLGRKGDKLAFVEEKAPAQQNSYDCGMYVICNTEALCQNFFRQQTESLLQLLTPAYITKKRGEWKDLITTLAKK
The format is functional.

Experiment [5] has as its target T3, Sentrin-specific protease 8. It counts as functional. The source holds these as a separate data set.
A further experiment has as its target Caspase-9 (Homo sapiens, UniProt P55211). The experiment can be described thus: inhibitors of purified CASP9 protease – biochemical, fluorescence, plate reader, cherry-picked samples, selectivity assay for caspase-6 inhibitor project, dose response (AID 743293).
Experiment [6] concerns the target T4, Apoptotic protease-activating factor 1 (Homo sapiens, UniProt O14727). It counts as functional.
The next experiment concerns the target Caspase-7 (Homo sapiens, UniProt P55210). Description: caspase-7 enzyme inhibition, selectivity check – biochemical, DEVD-R110 fluorescence, cherry-pick, selectivity assay for caspase-6 inhibitor project, dose response (AID 743295). It counts as functional.
In another experiment the target is T5, Caspase-6 (Homo sapiens, UniProt P55212).
T5 sequence (P55212 whole entry): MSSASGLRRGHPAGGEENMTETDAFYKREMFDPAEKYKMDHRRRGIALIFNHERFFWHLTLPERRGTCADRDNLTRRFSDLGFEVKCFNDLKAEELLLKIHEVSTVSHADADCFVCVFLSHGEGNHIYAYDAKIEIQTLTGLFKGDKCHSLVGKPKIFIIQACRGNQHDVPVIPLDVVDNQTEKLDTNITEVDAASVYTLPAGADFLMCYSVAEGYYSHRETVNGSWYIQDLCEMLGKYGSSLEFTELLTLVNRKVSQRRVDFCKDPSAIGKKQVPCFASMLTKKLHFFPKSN
The experiment can be described thus: inhibition of CASP6 peptide cleavage – biochemical, VEID-R110 fluorescence, cherry-pick, dose response (AID 720632).

The target in a further experiment is Caspase-8 (Homo sapiens, UniProt Q14790). Description: inhibitors of purified CASP8 protease – biochemical, Z-IETD-R110 fluorescence, cherry-picked samples, selectivity assay for caspase-6 inhibitor project, dose response (AID 743294).
Caspase-8, sequence (Q14790 217-374 limits assumed): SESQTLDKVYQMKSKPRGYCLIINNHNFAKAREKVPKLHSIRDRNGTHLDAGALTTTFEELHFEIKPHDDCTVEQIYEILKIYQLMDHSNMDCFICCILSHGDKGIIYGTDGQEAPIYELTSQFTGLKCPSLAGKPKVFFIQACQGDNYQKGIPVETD
Caspase-8, sequence (Q14790 385-479 limits assumed): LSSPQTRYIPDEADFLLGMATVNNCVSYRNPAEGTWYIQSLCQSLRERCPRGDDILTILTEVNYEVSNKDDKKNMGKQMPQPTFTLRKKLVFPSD
For experiment [7], the target named is Botulinum neurotoxin type A (Clostridium botulinum (strain Hall / ATCC 3502 / NCTC 13319 / Type A), UniProt P0DPI1). The experiment can be described thus: High-throughput multiplex microsphere dose response for inhibitors of toxin protease, specifically Botulinum neurotoxin light chain A protease, compounds from Cherry Pick 01. The format is functional. As to conditions: read-out: EC50_MICROM.
Botulinum neurotoxin type A, sequence (P0DPI1 2-448 limits assumed): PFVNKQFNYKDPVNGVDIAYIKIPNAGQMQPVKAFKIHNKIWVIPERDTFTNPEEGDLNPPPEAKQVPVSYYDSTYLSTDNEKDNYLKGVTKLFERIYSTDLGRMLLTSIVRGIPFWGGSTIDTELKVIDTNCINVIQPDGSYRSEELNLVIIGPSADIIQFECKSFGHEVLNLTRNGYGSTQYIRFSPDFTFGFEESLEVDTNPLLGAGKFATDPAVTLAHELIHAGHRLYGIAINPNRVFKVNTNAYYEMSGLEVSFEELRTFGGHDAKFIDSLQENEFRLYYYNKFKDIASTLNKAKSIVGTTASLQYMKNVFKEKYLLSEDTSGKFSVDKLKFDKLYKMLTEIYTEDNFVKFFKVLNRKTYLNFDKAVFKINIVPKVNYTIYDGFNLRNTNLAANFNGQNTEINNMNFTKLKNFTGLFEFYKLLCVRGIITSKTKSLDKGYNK

The target of experiment [8] is Melanin-concentrating hormone receptor 1 (Homo sapiens, UniProt Q99705). The experiment can be described thus: Late-stage fluorescence-based counterscreen for antagonists of the G-protein coupled receptor 7 (GPR7): cell-based dose response assay to identify antagonists of the melanin-concentrating hormone receptor 1 (MCHR1) Set 5. It counts as functional. (A counterscreen serves to expose hits that act by an unwanted route or on another target.)
Melanin-concentrating hormone receptor 1, sequence (Q99705 whole entry): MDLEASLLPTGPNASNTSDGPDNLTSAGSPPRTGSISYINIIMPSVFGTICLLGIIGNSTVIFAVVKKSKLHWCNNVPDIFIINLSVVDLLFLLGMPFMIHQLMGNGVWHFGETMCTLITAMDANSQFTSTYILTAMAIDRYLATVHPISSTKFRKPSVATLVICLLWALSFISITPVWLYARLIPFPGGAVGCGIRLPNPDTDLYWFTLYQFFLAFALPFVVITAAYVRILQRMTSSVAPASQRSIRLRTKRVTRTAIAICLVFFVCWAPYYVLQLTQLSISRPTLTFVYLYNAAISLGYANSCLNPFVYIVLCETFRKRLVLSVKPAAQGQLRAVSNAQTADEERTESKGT

Experiment [9] deals with T6, Neuropeptides B/W receptor type 1 (Homo sapiens, UniProt P48145).
T6 sequence (P48145 whole entry): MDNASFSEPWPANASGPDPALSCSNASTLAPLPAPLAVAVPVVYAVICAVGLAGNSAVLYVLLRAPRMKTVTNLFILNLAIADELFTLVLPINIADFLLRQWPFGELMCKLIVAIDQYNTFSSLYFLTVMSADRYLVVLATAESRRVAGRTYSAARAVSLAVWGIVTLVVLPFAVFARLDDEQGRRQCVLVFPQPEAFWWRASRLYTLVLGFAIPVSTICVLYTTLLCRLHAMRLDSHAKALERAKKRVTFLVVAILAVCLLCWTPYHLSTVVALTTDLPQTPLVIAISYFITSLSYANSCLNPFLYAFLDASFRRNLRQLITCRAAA
The experiment can be described thus: human NPBW1 receptor blockade, IC50 – cell-based, fluorescence, dose response, set 5, late-stage follow-up (AID 588566). The format is functional.

The target of experiment [10] is T4, Apoptotic protease-activating factor 1. Description: SAR analysis of small molecule Activators of Apaf-1 in a Fluorescent assay - set 2. It counts as functional. As to conditions: read-out: EC50_Mean.
The nature of experiment [11]: SAR analysis of small molecule activators of Apaf-1 using a LZ-Caspase-9/Caspase-3 Fluorescent Selectivity assay - Set 2. Particulars: read-out: EC50_Mean. The format is functional.

Active and inactive are the calls of the source.

T4 sequence (O14727 whole entry): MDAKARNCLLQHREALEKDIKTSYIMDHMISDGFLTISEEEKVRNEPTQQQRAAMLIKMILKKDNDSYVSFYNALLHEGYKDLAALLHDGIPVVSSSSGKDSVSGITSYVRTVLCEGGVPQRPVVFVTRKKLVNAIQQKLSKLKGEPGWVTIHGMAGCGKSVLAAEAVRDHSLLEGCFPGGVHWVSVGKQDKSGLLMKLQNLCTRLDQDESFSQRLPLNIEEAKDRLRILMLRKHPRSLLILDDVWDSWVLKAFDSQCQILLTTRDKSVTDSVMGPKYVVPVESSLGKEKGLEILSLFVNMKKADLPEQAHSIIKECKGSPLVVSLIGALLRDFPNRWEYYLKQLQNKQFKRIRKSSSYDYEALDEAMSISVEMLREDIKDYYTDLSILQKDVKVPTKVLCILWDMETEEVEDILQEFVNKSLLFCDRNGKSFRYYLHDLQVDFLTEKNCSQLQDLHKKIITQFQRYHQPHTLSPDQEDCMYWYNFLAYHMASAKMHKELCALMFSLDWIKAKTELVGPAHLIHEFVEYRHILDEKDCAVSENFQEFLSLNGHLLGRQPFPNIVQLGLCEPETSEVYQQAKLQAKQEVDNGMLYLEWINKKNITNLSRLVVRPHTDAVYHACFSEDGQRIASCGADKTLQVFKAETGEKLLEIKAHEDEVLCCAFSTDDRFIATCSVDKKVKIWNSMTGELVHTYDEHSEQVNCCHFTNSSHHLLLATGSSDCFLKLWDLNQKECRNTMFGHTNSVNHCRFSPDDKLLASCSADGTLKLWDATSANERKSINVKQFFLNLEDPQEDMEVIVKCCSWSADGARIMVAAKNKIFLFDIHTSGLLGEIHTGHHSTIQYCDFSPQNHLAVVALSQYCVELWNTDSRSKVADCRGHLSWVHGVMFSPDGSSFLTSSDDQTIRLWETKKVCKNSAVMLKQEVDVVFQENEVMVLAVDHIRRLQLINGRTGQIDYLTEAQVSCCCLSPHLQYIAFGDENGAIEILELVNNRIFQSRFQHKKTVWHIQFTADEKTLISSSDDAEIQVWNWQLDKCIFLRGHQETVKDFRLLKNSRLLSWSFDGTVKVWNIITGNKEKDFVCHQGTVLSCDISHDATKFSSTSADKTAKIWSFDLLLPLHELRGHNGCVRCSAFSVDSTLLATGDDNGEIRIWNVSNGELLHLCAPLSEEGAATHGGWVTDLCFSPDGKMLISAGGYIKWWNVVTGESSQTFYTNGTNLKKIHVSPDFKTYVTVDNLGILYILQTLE
Caspase-9, sequence (P55211 1-315 limits assumed): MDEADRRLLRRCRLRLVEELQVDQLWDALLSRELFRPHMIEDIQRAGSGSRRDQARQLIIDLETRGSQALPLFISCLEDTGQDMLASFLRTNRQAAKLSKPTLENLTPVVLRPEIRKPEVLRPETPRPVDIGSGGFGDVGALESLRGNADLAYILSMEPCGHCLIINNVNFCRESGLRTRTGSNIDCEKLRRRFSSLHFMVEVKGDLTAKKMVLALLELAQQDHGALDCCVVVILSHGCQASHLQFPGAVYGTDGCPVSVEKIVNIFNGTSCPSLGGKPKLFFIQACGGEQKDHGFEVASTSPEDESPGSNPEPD
Caspase-9, sequence (P55211 331-416 limits assumed): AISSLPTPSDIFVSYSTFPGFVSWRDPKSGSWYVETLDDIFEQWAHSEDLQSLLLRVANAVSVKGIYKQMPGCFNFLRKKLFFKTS
Caspase-7, sequence (P55210 24-198 limits assumed): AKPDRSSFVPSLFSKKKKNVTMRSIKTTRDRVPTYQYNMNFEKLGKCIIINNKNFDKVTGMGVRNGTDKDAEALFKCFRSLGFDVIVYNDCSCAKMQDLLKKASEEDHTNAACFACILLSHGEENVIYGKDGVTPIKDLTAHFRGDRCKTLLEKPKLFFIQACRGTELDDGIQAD
Caspase-7, sequence (P55210 207-303 limits assumed): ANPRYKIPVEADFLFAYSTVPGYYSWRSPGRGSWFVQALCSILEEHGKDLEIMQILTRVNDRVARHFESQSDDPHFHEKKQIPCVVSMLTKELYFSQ
Latent membrane protein 1, sequence (P03230 whole entry): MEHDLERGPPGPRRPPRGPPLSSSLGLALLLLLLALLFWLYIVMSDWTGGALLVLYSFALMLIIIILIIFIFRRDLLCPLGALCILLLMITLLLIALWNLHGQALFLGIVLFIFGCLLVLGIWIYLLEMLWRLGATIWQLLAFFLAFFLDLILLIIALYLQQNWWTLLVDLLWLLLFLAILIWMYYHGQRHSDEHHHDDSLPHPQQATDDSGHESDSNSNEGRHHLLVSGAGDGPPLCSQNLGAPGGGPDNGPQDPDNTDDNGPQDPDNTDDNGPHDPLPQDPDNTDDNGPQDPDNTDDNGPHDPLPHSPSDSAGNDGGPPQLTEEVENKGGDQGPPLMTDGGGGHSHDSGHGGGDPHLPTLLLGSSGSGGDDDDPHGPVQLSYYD

Turning to `CC1(C)N=C(N)N=C(N)N1c1ccc(CCCCc2ccccc2)cc1`, the figures for the AC50 in experiment [1] and in experiment [2] were 28.9 µM (active) and 11.2 µM (active), respectively.

`Oc1cc(NCCN2CCOCC2)cc2cccnc12`: the AC50 (usually the concentration at which the activity in the assay is half-maximal) in [3] was 25.9 µM (active); on Caspase-9 it was 15.9 µM (active); on Caspase-7 it was 3.53 µM (active); on Caspase-6 it was 3.39 µM (active); on Caspase-8, 17.6 µM (active). Moreover, the IC50 (usually the concentration that gives 50% inhibition) is 2.68 µM (active) in [4], 4.63 µM (active) in experiment [5] and 8.53 µM (active) in experiment [6].

As for `CSc1nnc2c(n1)c(C)nn2-c1cccc(C)c1`, in experiment [7], the EC50 was 6.4 µM (active).

For `N#CC(c1ccccc1)c1cnn(Cc2cccc3ccccc23)c(=O)c1Br` (stereo not given), the IC50 was > 20 µM (inactive) in [8] and ~0.227 µM (active) in [9].

For the compound `Cc1nc2ccccc2n1CC(C)C(=O)O` (stereo not given), the EC50 in experiment [10] is 94.1 µM (active); in experiment [11], > 100 µM (inactive).
